The values below come from patent US20260297109A1, “COMPOUNDS AS SUMO ACTIVATING ENZYME INHIBITORS” (WIGEN BIOMEDICINE TECHNOLOGY (SHANGHAI) CO., LTD., priority 2022, published 2026).

By IC50 is commonly meant the concentration needed to halve the response being measured.

Molecules are shown by their SMILES.

For the first test, the target named is T1, SAE (Homo sapiens, UniProt Q9UBT2).
T1 construct: endogenous in cells; host or cells: HCT116
T1 sequence (Q9UBT2 1-640): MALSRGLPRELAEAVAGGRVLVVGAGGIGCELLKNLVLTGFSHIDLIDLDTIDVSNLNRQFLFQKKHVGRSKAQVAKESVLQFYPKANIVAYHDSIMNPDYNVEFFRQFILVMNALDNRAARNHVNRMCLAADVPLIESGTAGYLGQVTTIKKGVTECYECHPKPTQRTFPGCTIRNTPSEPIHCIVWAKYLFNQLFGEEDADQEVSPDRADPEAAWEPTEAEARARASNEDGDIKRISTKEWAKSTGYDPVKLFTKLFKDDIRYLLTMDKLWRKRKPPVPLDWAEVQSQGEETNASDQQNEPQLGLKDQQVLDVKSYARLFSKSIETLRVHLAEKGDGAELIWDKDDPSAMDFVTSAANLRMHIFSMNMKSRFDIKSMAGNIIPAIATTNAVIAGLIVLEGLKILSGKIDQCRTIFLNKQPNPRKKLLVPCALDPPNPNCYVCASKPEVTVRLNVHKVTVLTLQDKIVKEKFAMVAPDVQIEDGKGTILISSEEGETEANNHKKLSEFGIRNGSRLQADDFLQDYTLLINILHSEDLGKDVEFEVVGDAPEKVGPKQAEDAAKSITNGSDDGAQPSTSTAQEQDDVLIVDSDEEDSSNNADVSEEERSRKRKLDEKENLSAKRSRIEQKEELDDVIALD
T1 sequence (Q9UBE0 1-346): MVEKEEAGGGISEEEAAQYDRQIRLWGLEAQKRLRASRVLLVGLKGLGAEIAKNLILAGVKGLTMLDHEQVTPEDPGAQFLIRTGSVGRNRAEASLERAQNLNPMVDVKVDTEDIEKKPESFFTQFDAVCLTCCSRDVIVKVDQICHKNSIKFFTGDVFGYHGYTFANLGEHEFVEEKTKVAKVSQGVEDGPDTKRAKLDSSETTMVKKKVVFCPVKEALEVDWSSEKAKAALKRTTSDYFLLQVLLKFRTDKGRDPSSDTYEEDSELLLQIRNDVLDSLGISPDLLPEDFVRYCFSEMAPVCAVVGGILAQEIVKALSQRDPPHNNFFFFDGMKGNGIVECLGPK
Description: SUMO IF: in vitro inhibitory activity assay against SAE in HCT116 cells (SUMO-2/3 immunofluorescence). The class given is cell-based. The note with it: class symbols, 6 h at 37° C. The essentials: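 HCT116 cells were treated with compound for 6 h at 37 °C, then PFA-fixed, Triton-permeabilised and BSA-blocked. They were stained overnight at 4 °C with anti-SUMO-2/3 (18H8) rabbit mAb (1:400), then with FITC anti-rabbit IgG (1:300). Fluorescence versus DMSO gave inhibition rate and IC50.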
In the case of `NS(=O)(=O)OC[C@H]1[C@H](F)[C@@H](Nc2ncncc2C(=O)c2cc3c(s2)CN(C2CC2)C[C@@]32OCCc3ccc(F)cc32)C[C@@H]1O` [Compound 739], the half-maximal inhibitory concentration (IC50) was more than 0.2 µM.
As for `NS(=O)(=O)OC[C@H]1[C@H](F)[C@@H](Nc2ncncc2C(=O)c2cc3c(s2)COCC32NCCc3ccc(Cl)c(F)c32)C[C@@H]1O` (stereo partly drawn) [Compound 567], the IC50 lay in the range of 0.05 to 0.2 µM.
For the compound `NS(=O)(=O)OC[C@H]1[C@H](F)[C@@H](Nc2ncncc2C(=O)c2cc3c(s2)CNC[C@@]32NCCc3ccc(Cl)cc32)C[C@@H]1O` [Compound 583], the half-maximal inhibitory concentration (IC50) is more than 0.2 µM.
Still for that read-out and setting: the same measure for `NS(=O)(=O)OC[C@H]1[C@H](F)[C@@H](Nc2ncncc2C(=O)c2cc3c(s2)CCC[C@]32NCCc3ccncc32)C[C@@H]1O` [Compound 678]: 0.05 to 0.2 µM.
Still for that read-out and setting: under `NS(=O)(=O)OC[C@H]1[C@H](F)[C@@H](Nc2ncncc2C(=O)c2cc3c(s2)CCCC32OCCc3ccccc32)C[C@@H]1O` (stereo partly drawn) [Compound 708] stands more than 0.2 µM; under `CCN1Cc2sc(C(=O)c3cncnc3N[C@H]3C[C@H](O)[C@@H](COS(N)(=O)=O)[C@@H]3F)cc2[C@@]2(C1)OCCc1ccc(Cl)cc12` [Compound 730], more than 0.2 µM; under `NS(=O)(=O)CC[C@H]1[C@H](F)[C@@H](Nc2ncncc2C(=O)c2cc3c(s2)C=C[C@]32NCCc3ccc(Cl)cc32)C[C@@H]1O` [Compound 640], 0.05 to 0.2 µM.
The same measure, in the same setting: under `CC(C)N1Cc2sc(C(=O)c3cncnc3N[C@H]3C[C@H](O)[C@@H](COS(N)(=O)=O)[C@@H]3F)cc2C2(C1)NCCc1ccc(Cl)cc12` (stereo partly drawn) [Compound 648] stands not above 0.05 µM; under `NS(=O)(=O)CC[C@H]1[C@H](F)[C@@H](Nc2ncncc2C(=O)c2cc3c(s2)CCC[C@]32NCCc3ccc(Cl)cc32)C[C@@H]1O` [Compound 638], 0.05 to 0.2 µM; under `NS(=O)(=O)OC[C@H]1[C@H](F)[C@@H](Nc2ncncc2C(=O)c2cc3c(s2)CN(C2CC2)CC32OCCc3ccc(Cl)cc32)C[C@@H]1O` (stereo partly drawn) [Compound 741], 0.05 to 0.2 µM.
`NS(=O)(=O)OC[C@H]1[C@H](F)[C@@H](Nc2ncncc2C(=O)c2nc3c(s2)CSC[C@@]32NCCc3ccc(Cl)cc32)C[C@@H]1O` [Compound 592] had an IC50 of more than 0.2 µM.
Same read-out and setting: under `NS(=O)(=O)OC[C@H]1[C@H](F)[C@@H](Nc2ncncc2C(=O)c2cc3c(s2)C=C[C@]32OCCc3ccc(Cl)cc32)C[C@@H]1O` [Compound 761] stands not above 0.05 µM; under `NS(=O)(=O)OC[C@H]1[C@H](F)[C@@H](Nc2ncncc2C(=O)c2cc3c(s2)CSCC32NCCc3ncc(Cl)cc32)C[C@@H]1O` (stereo partly drawn) [Compound 612], 0.05 to 0.2 µM.
`NS(=O)(=O)OC[C@H]1[C@H](F)[C@@H](Nc2ncncc2C(=O)c2cc3c(s2)CCC32NCCc3ccc(C(F)(F)F)cc32)C[C@@H]1O` (stereo partly drawn) [Compound 151] displayed an IC50 of 0.05 to 0.2 µM.
Same read-out and setting: the same measure for `NS(=O)(=O)OC[C@H]1[C@H](F)[C@@H](Nc2ncncc2C(=O)c2cc3c(s2)CCC[C@@]32NCCc3ncc(Cl)cc32)C[C@@H]1O` [Compound 604]: more than 0.2 µM.
In turn, `NS(=O)(=O)OC[C@H]1[C@H](F)[C@@H](Nc2ncncc2C(=O)c2cc3c(s2)CCC[C@]32NCCc3ccc(C(F)(F)F)cc32)C[C@@H]1O` [Compound 669] returned an IC50 of 0.05 to 0.2 µM.
Same read-out and setting: under `NS(=O)(=O)OC[C@H]1[C@H](F)[C@@H](Nc2ncncc2C(=O)c2cc3c(s2)CCCC32NC3(CC3)Cc3ccc(Cl)cc32)C[C@@H]1O` (stereo partly drawn) [Compound 124] stands 0.05 to 0.2 µM; under `NS(=O)(=O)CC[C@H]1[C@H](F)[C@@H](Nc2ncncc2C(=O)c2cc3c(s2)CC[C@]32NCCc3ccc(Cl)cc32)C[C@@H]1O` [Compound 642], 0.05 to 0.2 µM.
On the same count and under the same terms, under `NS(=O)(=O)OC[C@H]1[C@H](F)[C@@H](Nc2ncncc2C(=O)c2cc3c(s2)CSC[C@]32NCCc3ccc(Cl)nc32)C[C@@H]1O` [Compound 611] stands not above 0.05 µM; under `NS(=O)(=O)OC[C@H]1[C@H](F)[C@@H](Nc2ncncc2C(=O)c2cc3c(s2)CC[C@]32NCCc3ccc(C(F)(F)F)cc32)C[C@@H]1O` [Compound 690], 0.05 to 0.2 µM.
Still for that read-out and setting: the same measure for `Cc1ccc2c(c1)C1(CCCc3sc(C(=O)c4cncnc4N[C@H]4C[C@H](O)[C@@H](COS(N)(=O)=O)[C@@H]4F)cc31)NCC2` (stereo partly drawn) [Compound 106]: 0.05 to 0.2 µM.
Regarding `NS(=O)(=O)CC[C@H]1[C@H](F)[C@@H](Nc2ncncc2C(=O)c2cc3c(s2)CC[C@@]32NCCc3ccc(Cl)cc32)C[C@@H]1O` [Compound 641], the half-maximal inhibitory concentration (IC50) was more than 0.2 µM.
Same read-out and setting: under `COc1cc2c(cc1Cl)C(c1cc(C(=O)c3cncnc3N[C@H]3C[C@H](O)[C@@H](COS(N)(=O)=O)[C@@H]3F)sc1C)NCC2` (stereo partly drawn) [Compound 250] stands 0.05 to 0.2 µM.
The compound `NS(=O)(=O)OC[C@H]1[C@H](F)[C@@H](Nc2ncncc2C(=O)c2cc3c(s2)C=CC[C@]32NCCc3ccc(Cl)cc32)C[C@@H]1O` [Compound 680] had a half-maximal inhibitory concentration (IC50) not above 0.05 µM.
Still for that read-out and setting: the same measure for `CC1=C[C@@]2(NCCc3ccc(F)cc32)c2cc(C(=O)c3cncnc3N[C@H]3C[C@H](O)[C@@H](COS(N)(=O)=O)[C@@H]3F)sc21` [Compound 622]: more than 0.2 µM.
Still for that read-out and setting: the same measure for `Cc1sc(C(=O)c2cncnc2N[C@H]2C[C@H](O)[C@@H](COS(N)(=O)=O)[C@@H]2F)cc1[C@H]1NCCc2ccc(C#N)cc21` [Compound 240]: more than 0.2 µM; for `NS(=O)(=O)OC[C@H]1[C@H](F)[C@@H](Nc2ncncc2C(=O)c2cc3c(s2)CN(C2CC2)CC32OCCc3ccc(F)cc32)C[C@@H]1O` (stereo partly drawn) [Compound 738]: 0.05 to 0.2 µM.
Same read-out and setting: under `NS(=O)(=O)OC[C@H]1[C@H](F)[C@@H](Nc2ncncc2C(=O)c2cc3c(s2)CCCC32NCC3(CC3)c3ccc(Cl)cc32)C[C@@H]1O` (stereo partly drawn) [Compound 123] stands 0.05 to 0.2 µM; under `C=CCN1Cc2sc(C(=O)c3cncnc3N[C@H]3C[C@H](O)[C@@H](COS(N)(=O)=O)[C@@H]3F)cc2C2(C1)NCCc1ccc(Cl)cc12` (stereo partly drawn) [Compound 654], not above 0.05 µM; under `NS(=O)(=O)OC[C@H]1[C@H](F)[C@@H](Nc2ncncc2C(=O)c2cc3c(s2)C=C[C@@]32NCCc3ccc(F)cc32)C[C@@H]1O` [Compound 345], more than 0.2 µM.
The compound `N#Cc1ccc2c(c1)[C@@]1(CCCc3sc(C(=O)c4cncnc4N[C@H]4C[C@H](O)[C@@H](COS(N)(=O)=O)[C@@H]4F)cc31)NCC2` [Compound 96] displayed an IC50 not above 0.05 µM.
Still for that read-out and setting: under `CC1(C)CN[C@@]2(CCCc3sc(C(=O)c4cncnc4N[C@H]4C[C@H](O)[C@@H](COS(N)(=O)=O)[C@@H]4F)cc32)c2cc(Cl)ccc21` [Compound 1027] stands more than 0.2 µM.
The same measure, in the same setting: the same measure for `NS(=O)(=O)OC[C@H]1[C@H](F)[C@@H](Nc2ncncc2C(=O)c2cc3c(s2)CC[C@]32NCCc3cc(Cl)c(F)cc32)C[C@@H]1O` [Compound 698]: not above 0.05 µM.
The same measure, in the same setting: the same measure for `CC1(C)Cc2ccc(Cl)cc2C2(CCCc3sc(C(=O)c4cncnc4N[C@H]4C[C@H](O)[C@@H](COS(N)(=O)=O)[C@@H]4F)cc32)N1` (stereo partly drawn) [Compound 1029]: 0.05 to 0.2 µM; for `NS(=O)(=O)OC[C@H]1[C@H](F)[C@@H](Nc2ncncc2C(=O)c2cc3c(s2)OC[C@@]32NCCc3ccc(F)cc32)C[C@@H]1O` [Compound 143]: more than 0.2 µM.
The compound `NS(=O)(=O)OC[C@H]1[C@H](F)[C@@H](Nc2ncncc2C(=O)c2cc3c(s2)CNCC32NCCc3ccc(Cl)cc32)C[C@@H]1O` (stereo partly drawn) [Compound 582] yielded an IC50 of 0.05 to 0.2 µM.
The same measure, in the same setting: under `CC1(C)CN[C@@]2(C=Cc3sc(C(=O)c4cncnc4N[C@H]4C[C@H](O)[C@@H](COS(N)(=O)=O)[C@@H]4F)cc32)c2cc(Cl)ccc21` [Compound 1060] stands more than 0.2 µM; under `Cc1sc(C(=O)c2cncnc2N[C@H]2C[C@H](O)[C@@H](COS(N)(=O)=O)[C@@H]2F)cc1[C@@H]1OCCc2ccc(Cl)cc21` [Compound 988], 0.05 to 0.2 µM; under `NS(=O)(=O)OC[C@H]1[C@H](F)[C@@H](Nc2ncncc2C(=O)c2cc3c(s2)CCCC32NCCc3cc(Cl)c(F)cc32)C[C@@H]1O` (stereo partly drawn) [Compound 117], 0.05 to 0.2 µM.

The same test, now with this note: numeric values, 6 h at 37° C.
The compound `CC(C)N1Cc2sc(C(=O)c3cncnc3N[C@H]3C[C@H](O)[C@@H](COS(N)(=O)=O)[C@@H]3F)cc2[C@@]2(C1)NCCc1ccc(Cl)cc12` [Compound 649] registered an IC50 of more than 1 µM.
On the same count and under the same terms, under `NS(=O)(=O)OC[C@H]1[C@H](F)[C@@H](Nc2ncncc2C(=O)c2cc3c(s2)CSC[C@]32NCCc3ccc(Cl)cc32)C[C@@H]1O` [Compound 302] stands 0.0215 µM; under `CN1Cc2sc(C(=O)c3cncnc3N[C@H]3C[C@H](O)[C@@H](COS(N)(=O)=O)[C@@H]3F)cc2[C@]2(C1)NCCc1ccc(Cl)cc12` [Compound 578], 0.0292 µM.
